Entries after “also recorded” stand apart in the source; their conditions may differ.
Experiments:
human α7 NNRs = human α7 NNRs (Homo sapiens, UniProt P36544); assay: cell-based; details: read-out: E. (Emax) of ACh response
Description: Mature (>9 cm) female Xenopus laevis African toads (Nasco, Ft. Atkinson, Wis.) were used as a source of oocytes. Prior to surgery, the toads were anesthetized by placing the animal in a 1.5 g/L solution of 3-aminobenzoic acid ethyl ester for 30 min. Oocytes were removed from an incision made in the abdomen.
Subsequently, stage 5 oocytes were isolated and injected with 50 mL (5-20 ng) each of the human α7 cRNA. Recordings were made 2 to 7 days after injection. Fresh acetylcholine (ACh) stock solutions were made daily in Ringer's solution.
Experiments were conducted using OpusXpress 6000A (Axon Instruments, Union City Calif.). […]
Each oocyte received an initial control application of ACh, then an experimental drug application, and then a follow-up control application of ACh (300 μM). Responses to experimental drug applications were calculated relative to the preceding ACh control responses in order to normalize the data, compensating for the varying levels of channel expression among the oocytes. […] Means and standard errors (SEM) were calculated from the normalized responses of at least four oocytes for each experimental concentration. For concentration-response relations, data derived from net charge analyses were plotted using Kaleidagraph 3.0.2 (Abelbeck Software; Reading, Pa.), and curves were generated from the Hill equation.

[1] = Water solubility (salt screening); format: physicochemical
Description: Thermodynamic Aqueous Solubility by HPLC
The suspension was equilibrated at 25° C. for 24 h, and then the pH was measured. The suspension was then filtered through a glass fiber C filter into a 96 well plate. The filtrate was then diluted by a factor of 101. Quantitation was by HPLC with reference to a standard solution of approximately 0.1 mg/mL in DMSO. Different volumes of the standard, diluted and undiluted sample solutions were injected. The solubility was calculated using the peak areas determined by integration of the peak found at the same retention time as the principal peak in the standard injection. If there was sufficient solid in the filter plate, the XRPD was collected.

rats [2] = assay: Object recognition (OR) paradigm; format: in vivo
[3] = Pre-pulse inhibition (PPI), apomorphine-induced deficits; format: in vivo; details: subcutaneous pretreatment (FIG. 9)
rats [4] = assay: MK-801 induced deficits in the OR task; format: in vivo; details: 0.3 and 1 mg/kg i.p. (FIGS. 5A, 5B)
M2 muscarinic receptors = target: T1, M2 muscarinic receptors (Homo sapiens, UniProt P08172); assay: Competitive binding inhibition, M2 muscarinic
T1 sequence (P08172 1-466): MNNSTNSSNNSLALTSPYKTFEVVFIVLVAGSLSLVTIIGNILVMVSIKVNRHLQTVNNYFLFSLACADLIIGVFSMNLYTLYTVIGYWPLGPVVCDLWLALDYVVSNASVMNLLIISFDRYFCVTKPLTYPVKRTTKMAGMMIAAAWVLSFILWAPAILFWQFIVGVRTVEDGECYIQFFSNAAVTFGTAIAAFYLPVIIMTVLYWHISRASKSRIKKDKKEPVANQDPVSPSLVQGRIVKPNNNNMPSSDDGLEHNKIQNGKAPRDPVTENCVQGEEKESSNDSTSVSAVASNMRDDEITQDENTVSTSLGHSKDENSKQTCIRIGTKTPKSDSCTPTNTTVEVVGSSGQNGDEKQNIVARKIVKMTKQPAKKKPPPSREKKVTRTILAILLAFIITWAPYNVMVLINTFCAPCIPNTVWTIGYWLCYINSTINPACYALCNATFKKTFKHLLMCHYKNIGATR

mouse 5HT3 receptor = target: T2, mouse 5HT3 receptor (Mus musculus, UniProt P23979); assay: Radioligand binding at mouse 5HT3 receptor; details: read-out: Inhibition of radioligand binding at mouse 5HT3 receptor
T2 sequence (P23979 24-489): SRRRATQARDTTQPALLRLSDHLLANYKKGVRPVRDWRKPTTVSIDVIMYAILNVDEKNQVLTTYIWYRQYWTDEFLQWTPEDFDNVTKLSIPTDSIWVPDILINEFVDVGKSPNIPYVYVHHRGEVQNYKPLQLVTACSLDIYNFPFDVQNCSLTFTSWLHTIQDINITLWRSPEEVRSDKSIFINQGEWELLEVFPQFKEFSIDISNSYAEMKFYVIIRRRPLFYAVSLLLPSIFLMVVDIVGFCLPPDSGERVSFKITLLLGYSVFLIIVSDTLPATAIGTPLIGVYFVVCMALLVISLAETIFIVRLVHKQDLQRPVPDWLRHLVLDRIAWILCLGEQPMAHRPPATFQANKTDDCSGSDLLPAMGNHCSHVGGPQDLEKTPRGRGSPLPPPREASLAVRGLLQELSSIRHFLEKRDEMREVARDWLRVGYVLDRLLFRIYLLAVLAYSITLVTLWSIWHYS

[5] = Radial arm maze (RAM) paradigm; format: in vivo; details: p.o. 30 minutes prior to daily session, 0.3 mg/kg, second week (FIG. 7)
Excerpt: FIG. 7 illustrates an assessment of cognitive effects in a radial arm maze (RAM) paradigm.

rats [6] = details: 0.3 and 1.0 mg/kg s.c., apomorphine 1.0 mg/kg (FIG. 8)
Description: The reversal of apomorphine-induced locomotor activity (APO LOCO) assay was performed in accord with the description of Roux et al., Curr.

human α4β2 sub-type = human α4β2 sub-type (Homo sapiens, UniProt P17787+P43681); assay: Electrophysiology, human α4β2 in Xenopus oocytes
Chain of human α4β2 sub-type (P43681 29-627 limits assumed): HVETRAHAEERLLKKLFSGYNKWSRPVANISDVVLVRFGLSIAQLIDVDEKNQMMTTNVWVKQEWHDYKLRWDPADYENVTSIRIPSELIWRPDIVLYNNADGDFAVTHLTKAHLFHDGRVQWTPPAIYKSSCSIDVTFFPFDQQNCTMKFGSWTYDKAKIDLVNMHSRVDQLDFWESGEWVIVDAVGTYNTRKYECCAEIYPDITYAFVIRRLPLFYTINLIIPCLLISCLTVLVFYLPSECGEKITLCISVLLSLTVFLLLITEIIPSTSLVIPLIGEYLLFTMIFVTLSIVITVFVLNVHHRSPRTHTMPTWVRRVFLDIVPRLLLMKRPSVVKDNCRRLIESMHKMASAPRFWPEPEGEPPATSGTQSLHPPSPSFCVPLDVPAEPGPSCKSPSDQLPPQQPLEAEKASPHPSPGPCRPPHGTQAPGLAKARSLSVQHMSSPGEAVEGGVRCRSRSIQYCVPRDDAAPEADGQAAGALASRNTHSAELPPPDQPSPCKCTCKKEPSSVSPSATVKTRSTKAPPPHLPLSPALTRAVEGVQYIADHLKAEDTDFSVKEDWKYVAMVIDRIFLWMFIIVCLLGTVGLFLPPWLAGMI
Chain of human α4β2 sub-type (P17787 26-502): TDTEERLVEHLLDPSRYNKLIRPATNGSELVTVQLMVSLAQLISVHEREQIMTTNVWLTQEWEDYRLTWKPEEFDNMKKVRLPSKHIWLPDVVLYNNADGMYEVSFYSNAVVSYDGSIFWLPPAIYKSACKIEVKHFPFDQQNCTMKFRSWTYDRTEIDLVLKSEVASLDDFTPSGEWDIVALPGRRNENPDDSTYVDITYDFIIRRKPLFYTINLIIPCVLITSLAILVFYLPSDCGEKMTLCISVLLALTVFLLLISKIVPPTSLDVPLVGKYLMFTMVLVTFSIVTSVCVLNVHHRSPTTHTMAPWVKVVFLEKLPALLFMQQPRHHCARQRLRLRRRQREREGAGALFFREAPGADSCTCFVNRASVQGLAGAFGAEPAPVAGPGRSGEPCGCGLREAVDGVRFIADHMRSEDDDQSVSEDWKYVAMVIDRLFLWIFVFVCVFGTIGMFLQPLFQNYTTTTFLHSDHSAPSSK

M1 muscarinic receptors = target: T3, M1 muscarinic receptors (Homo sapiens, UniProt P11229); assay: Competitive binding inhibition, M1 muscarinic
T3 sequence (P11229 1-460): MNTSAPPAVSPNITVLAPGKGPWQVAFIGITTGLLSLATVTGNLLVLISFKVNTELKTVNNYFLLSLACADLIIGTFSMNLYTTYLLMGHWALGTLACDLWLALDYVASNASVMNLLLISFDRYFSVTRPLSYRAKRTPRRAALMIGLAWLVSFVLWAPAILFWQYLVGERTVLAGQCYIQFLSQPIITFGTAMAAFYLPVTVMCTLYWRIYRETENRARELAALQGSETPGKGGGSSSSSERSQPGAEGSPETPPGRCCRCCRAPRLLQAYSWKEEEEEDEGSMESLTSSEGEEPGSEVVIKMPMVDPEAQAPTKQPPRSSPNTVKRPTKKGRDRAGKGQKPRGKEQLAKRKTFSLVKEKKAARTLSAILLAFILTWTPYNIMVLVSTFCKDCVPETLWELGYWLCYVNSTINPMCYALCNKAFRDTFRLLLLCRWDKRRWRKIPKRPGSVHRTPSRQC

α4β2 NNRs = α4β2 NNRs (Homo sapiens, UniProt P17787+P43681); assay: Binding to α4β2 NNRs
Chain of α4β2 NNRs (P43681 29-627 limits assumed): as the sequence (P43681 29-627 limits assumed) above
Chain of α4β2 NNRs (P17787 26-502): as the sequence (P17787 26-502) above

[7] = target: rat α7 NNRs stably expressed in GH4C1 (mammalian) cells (Rattus norvegicus, UniProt Q05941); assay: Patch clamp electrophysiology, rat α7 NNR in GH4C1 cells
Chain of rat α7 NNRs stably expressed in GH4C1 (mammalian) cells (Q05941 23-502): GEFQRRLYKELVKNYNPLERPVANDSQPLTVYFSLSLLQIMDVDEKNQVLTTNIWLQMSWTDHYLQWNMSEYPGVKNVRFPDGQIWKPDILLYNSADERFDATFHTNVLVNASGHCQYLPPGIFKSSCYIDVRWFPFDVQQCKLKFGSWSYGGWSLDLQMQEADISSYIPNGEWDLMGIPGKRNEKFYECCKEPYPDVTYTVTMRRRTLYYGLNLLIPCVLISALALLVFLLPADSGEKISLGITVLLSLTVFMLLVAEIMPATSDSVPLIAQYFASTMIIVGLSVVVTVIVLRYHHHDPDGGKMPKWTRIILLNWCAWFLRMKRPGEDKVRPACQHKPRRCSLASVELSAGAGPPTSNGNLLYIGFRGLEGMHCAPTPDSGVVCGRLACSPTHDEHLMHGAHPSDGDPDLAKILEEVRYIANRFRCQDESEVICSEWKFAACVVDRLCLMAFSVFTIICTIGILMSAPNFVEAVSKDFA
Description: Electrophysiological measurement of α7 NNR response were taken in two expression systems: rat α7 NNR in mammalian GH4C1 cells and human α7 NNR in Xenopus oocytes.
Electrophysiological measurements of agonist activity were achieved using the Dynaflow rapid perfusion system and patch clamp using this GH4C1 cell expression system.
Whole-cell currents recorded with an Axopatch 700A amplifier were filtered at 1 kHz and sampled at 5 kHz by a PCI card (National Instrument). […] Cells were recorded at room temperature in the following extracellular medium: 130 mM NaCl, 5 mM KCl, 2 mM CaCl2, 2 mM MgCl2, 10 mM HEPES, adjusted to pH 7.4 with aqueous NaOH. […] Under these conditions, the macro-current activity obtained with NNR whole-cell recording lasts up to 60 min when elicited with a 1000 μM acetylcholine (ACh) concentration.
Cell handling procedures were adopted from Cellectricon application notes for Dynaflow. Briefly, after removal from the incubator, cells were washed thoroughly three times with recording medium and placed on the stage of a inverted Zeiss microscope. On average 5 min was necessary before the whole-cell recording configuration was established. To avoid modification of the cell conditions, a single cell was recorded per single load of cells into Dynaflow silicon chip. […] Cells were held at −60 mV throughout the experiment. […]

human 5HT3 receptor = target: T4, human 5HT3 receptor (Homo sapiens, UniProt P46098); assay: Radioligand binding at human 5HT3 receptor; details: read-out: Inhibition of radioligand binding at human 5HT3 receptor
T4 sequence (P46098 24-478): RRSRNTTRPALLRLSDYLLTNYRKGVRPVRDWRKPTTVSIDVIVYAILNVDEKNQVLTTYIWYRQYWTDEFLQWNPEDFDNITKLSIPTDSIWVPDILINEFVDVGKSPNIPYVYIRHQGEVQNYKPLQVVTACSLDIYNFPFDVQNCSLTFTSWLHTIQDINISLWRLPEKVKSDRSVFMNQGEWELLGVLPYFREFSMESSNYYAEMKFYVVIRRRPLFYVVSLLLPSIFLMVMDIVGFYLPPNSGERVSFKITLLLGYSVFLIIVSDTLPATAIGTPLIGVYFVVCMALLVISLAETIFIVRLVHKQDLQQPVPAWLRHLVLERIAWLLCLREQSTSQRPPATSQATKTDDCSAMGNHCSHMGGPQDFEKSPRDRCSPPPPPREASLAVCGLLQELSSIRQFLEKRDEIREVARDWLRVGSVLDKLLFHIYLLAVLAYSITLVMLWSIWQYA

[8] = Hygroscopicity (salt screening); format: physicochemical
Description: Sorption isotherms were determined on either or both of two instruments. Some were experiments were run using a VTI Corporation SGA-100 moisture sorption analyzer, controlled by VTI FlowSystem 4 software. The sample temperature was maintained at 25° C. with the aid of a Polyscience constant temperature bath. The humidity was controlled by mixing streams of dry and wet nitrogen. The weight change as a function of % RH was monitored using a Cahn Digital Recording Balance D-200 with an accuracy of +/−0.0001 g.
Typically a 10-20 mg sample was placed on the tared balance pan under ambient conditions. The sample was dried at 50° C. for 1 h. The standard adsorption isotherm was performed at 25° C. at 5% RH intervals over a 5-95% RH range, and the desorption isotherm was similarly done at 25° C. at 5% RH intervals over a 95-5% RH range. Sample equilibration criteria included 0.0100 wt % in 5 min or a maximum equilibration time of 180 min for each % RH data point.
Some sorption isotherms were obtained using a Hiden IGASorp moisture sorption analyser, controlled by CFRSorp software. The sample temperature was maintained at 25° C. by a Huber re-circulating water bath. The humidity was controlled by mixing streams of dry and wet nitrogen, with a total flow rate of 250 mL/min. The relative humidity was measured by a calibrated Vaisala RH probe (dynamic range of 0-95% RH), located near the sample. The weight change, (mass relaxation) of the sample as a function of % RH was constantly monitored by the microbalance (accuracy ±0.001 mg). Typically 10-20 mg of sample was placed in a tared mesh stainless steel basket under ambient conditions. The sample was loaded and unloaded at 40% RH and 25° C. (typical ambient conditions). A moisture sorption isotherm was performed as outlined below (2 scans giving 1 complete cycle). The standard isotherm was performed at 25° C. at 10% RH intervals over a 0-90% RH range.
The software uses a least squares minimization procedure together with a model of the mass relaxation, to predict an asymptotic value. The measured mass relaxation value must be within 5% of that predicted by the software, before the next % RH value is selected. The minimum equilibration time was set to 1 h and the maximum to 4 h. Typically, samples were recovered after completion of the isotherm and re-analyzed by XRPD.

[9] = Solid state stability by XRPD, 40° C./75% RH; format: physicochemical; details: 1 week at 40° C./75% RH
Description: X-Ray Powder Diffraction patterns were collected either or both of two instruments. Some were collected on a Siemens D5000 diffractometer using CuKα radiation (40 kV, 40 mA), 0-0 goniometer, V20 divergence and receiving slits, a graphite secondary monochromator and a scintillation counter. The instrument was performance checked using a certified Corundum standard (NIST 1976). Samples run under ambient conditions were prepared as flat plate specimens using powder as received. Approximately 35 mg of the sample was gently packed into a cavity cut into polished, zero-background (510) silicon wafer. The sample was rotated in its own plane during analysis, scanning from 2° to 42° in steps of 0.05° at 4 seconds per step, using CuKα1 (λ=1.5406 Å).
The tosylate salt, specifically the crystalline mono salt, was confirmed and the diffraction pattern is shown in FIG. 14 using CuKα radiation (40 kV, 40 mA), 0-0 goniometer, V20 divergence and receiving slits, a graphite secondary monochromator, and a scintillation counter. […] Likely, the change is due to a more hydrated form.

Chain of human α7 NNRs (P36544 23-502): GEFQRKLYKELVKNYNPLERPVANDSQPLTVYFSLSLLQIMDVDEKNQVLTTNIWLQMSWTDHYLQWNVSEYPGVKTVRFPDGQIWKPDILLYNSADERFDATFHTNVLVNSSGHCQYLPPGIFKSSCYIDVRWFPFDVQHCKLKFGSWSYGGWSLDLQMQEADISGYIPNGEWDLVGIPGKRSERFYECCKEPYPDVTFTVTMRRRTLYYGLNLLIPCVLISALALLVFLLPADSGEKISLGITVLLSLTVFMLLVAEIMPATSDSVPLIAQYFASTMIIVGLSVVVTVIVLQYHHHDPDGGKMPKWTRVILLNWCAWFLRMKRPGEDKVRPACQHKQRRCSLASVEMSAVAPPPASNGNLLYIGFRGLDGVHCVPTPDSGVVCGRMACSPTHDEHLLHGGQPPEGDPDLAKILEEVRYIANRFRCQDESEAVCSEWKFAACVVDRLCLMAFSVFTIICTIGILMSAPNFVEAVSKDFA

O=C(N[C@@H]1C2CCN(CC2)[C@H]1Cc1cccnc1)c1cc2ccccc2o1 (single isomer, unassigned) [Compound A]
Emax (human α7 NNRs): 100%
Water solubility [1]: very limited water solubility
Duration of cognitive effects in OR (rats [2]; 0.3 mg/kg orally (FIG. 6)): at least 18 hours
Time investigating novel versus familiar object (rats [2]; 0.3 mg/kg p.o. sub-acute, 30 min, 2 h, 6 h and 18 h after final administration): significantly (P<0.05) more time investigating object B (novel) than object A (familiar)
Cognitive effects in object recognition, i.p. (rats [2]; rats, 0.3 and 1 mg/kg i.p. (FIG. 3)): potent activity
Cognitive effects in object recognition, p.o. (rats [2]; rats, p.o., 0.3-10 mg/kg (FIG. 4)): potent activity; also recorded: activity across a wide dose range
Effect on apomorphine-induced prepulse inhibition deficits [3]: displays effectiveness
Effect on MK-801 induced deficits in the OR task (rats [4]): tends to reverse MK-801 induced deficits
Interaction with M2 muscarinic receptors (M2 muscarinic receptors): minimal to no interaction
inhibition at 10 µM (mouse 5HT3 receptor): 59%
Performance in radial arm maze (working memory) [5]: significantly increased the number of correct choices prior to error
Effect on apomorphine-induced locomotor hyperactivity (rats [6]): displays effectiveness in reversing apomorphine-induced locomotor activity
Activation of human α4β2 (human α4β2 sub-type): no detectable activation
Decreases in subsequent control responses to ACh at α4β2 (human α4β2 sub-type): no significant decreases
Interaction with M1 muscarinic receptors (M1 muscarinic receptors): minimal to no interaction
Ki (α4β2 NNRs): > 2000 nM
Emax ([7]; GH4-C1, read-out: Emax relative to acetylcholine (ACh)): 93%
Functional activity at the α7 subtype ([7]; rat α7 in GH4C1 cells, FIGS. 1A.2 and 1B): potent agonism throughout the concentration range of 1-50 nM
inhibition at 10 µM (human 5HT3 receptor): 25%

Cl.O=C(N[C@@H]1C2CCN(CC2)[C@H]1Cc1cccnc1)c1cc2ccccc2o1 [hydrochloric acid salt]
Hygroscopicity [8]: low hygroscopicity
Water solubility [1]: good water solubility

O=C(N[C@@H]1C2CCN(CC2)[C@H]1Cc1cccnc1)c1cc2ccccc2o1.O=C(O)/C=C\C(=O)O [maleic acid salt]
Hygroscopicity [8]: low hygroscopicity
Water solubility [1]: good water solubility

Cc1ccc(S(=O)(=O)O)cc1.O=C(N[C@@H]1C2CCN(CC2)[C@H]1Cc1cccnc1)c1cc2ccccc2o1 [p-toluenesulfonic acid salt]
Hygroscopicity [8]: low hygroscopicity
Water solubility [1]: good water solubility
XRPD form after storage [9]: reveals a change but the sample is still Form 1

O=C(N[C@@H]1C2CCN(CC2)[C@H]1Cc1cccnc1)c1cc2ccccc2o1.O=P(O)(O)O [phosphoric acid salt]
Hygroscopicity [8]: low hygroscopicity
Water solubility [1]: good water solubility
